Key:
Format in all cases: cell-based, human
[1] = system: surface proteinase 3 (PR3); experiment: Surface PR3 expression by flow cytometry in neutrophils differentiated in the presence of INS1007; conditions: for percentage of cells with no detectable surface PR3 expression: untreated approximately 30-40%, FIG. 2
Protocol: (§1) To evaluate the pharmacological effects of INS1007 on surface PR3 expression, total PR3 expression, and NSP activity, stem cells were differentiated to neutrophils in the presence of INS1007 at increasing concentrations. Primary bone marrow (BM) or umbilical cord blood (UC) derived CD34^+ neutrophil progenitor cells (AllCells; Alameda, Calif.) were cultured for 7 days in STEMSPAN™ SFEM media (Stemcell Technologies; Tukwila, Wash.) supplemented with recombinant human Stem Cell Factor (Peprotech; Rocky Hill, N.J.) and recombinant human IL-3 (Peprotech). The cells were differentiated in culture for another 7 days in STEMSPAN® SFEM media (Stemcell Technologies) with recombinant human Granulocyte Colony Stimulating Factor (Peprotech), plus increasing concentrations of INS1007 (0-10 μM). At the end of the differentiation/treatment period, cells were harvested for analysis.
(§2) Differentiated neutrophils were harvested for flow cytometry to quantify PR3 expression on the surface of neutrophils (FIGS. 1 and 2) and neutrophil total PR3 expression (FIG. 3).
After harvest, the cells were resuspended in FACS staining buffer and Fc receptors were blocked for 30 min at 4° C. Cells were stained for 30 min with a mouse anti-PR3 monoclonal antibody (Abcam: Cambridge, Mass.) or a mouse monoclonal IgG isotype control (Abcam), followed by a Cy5-conjugated goat anti-mouse IgG secondary antibody (Abcam), and then analyzed using a GUAVA® EASYCYTEI^M 6HT flow cytometer (Millipore; Billerica, Mass.).

[2] = system: proteinase 3 (PR3); experiment: PR3 activity in lysates of neutrophils differentiated in the presence of INS1007; conditions: highest concentration tested (10 μM); FIG. 6
Protocol: (§3) To evaluate the pharmacological effects of INS1007 on surface PR3 expression, total PR3 expression, and NSP activity, stem cells were differentiated to neutrophils in the presence of INS1007 at increasing concentrations. Primary bone marrow (BM) or umbilical cord blood (UC) derived CD34^+ neutrophil progenitor cells (AllCells; Alameda, Calif.) were cultured for 7 days in STEMSPAN™ SFEM media (Stemcell Technologies; Tukwila, Wash.) supplemented with recombinant human Stem Cell Factor (Peprotech; Rocky Hill, N.J.) and recombinant human IL-3 (Peprotech). […]
(§4) Neutrophils in a separate aliquot of harvested neutrophils were lysed with 10% (v/v) Triton X-100 in PBS and the lysates were added to 96-well plates. Peptide substrates for NE (N-Methoxysuccinyl-Ala-Ala-Pro-Val-7-amido-4-methylcoumarin; Sigma-Aldrich; St. Louis, Mo.), for PR3 (aminobenzoyl-Val-Ala-Asp-Cys-Ala-Asp-Gln-Lys(2,4-dinitrophenyl); GenScript; Piscataway, N.J.), and for CatG (N-Succinyl-Ala-Ala-Pro-Phe p-nitroanilide; Sigma) were added, and either fluorescence or absorbance was quantified using a SYNERGY™ microplate reader (BioTek; Winooski, Vt.). […] A portion of cell lysate samples was retained for protein quantification using a PIERCE™ BCA Protein Assay Kit (Thermo Fisher) according to the manufacturer's instructions. […]

[3] = system: neutrophil elastase (NE); experiment: NE activity in lysates of neutrophils differentiated in the presence of INS1007; conditions: highest concentration tested (10 μM); FIG. 5
Protocol: as §3, §4

[4] = system: cathepsin G (CatG); experiment: CatG activity in lysates of neutrophils differentiated in the presence of INS1007; conditions: highest concentration tested (10 μM); data not shown
Protocol: as §3, §4

[5] = system: total proteinase 3 (PR3); experiment: Total PR3 expression (surface and intracellular) by flow cytometry in differentiated neutrophils; conditions: for total PR3 levels: FIG. 3
Protocol: as §1, §2

[6] = system: surface PR3; experiment: Fluorescence microscopy of surface PR3 on differentiated neutrophils; conditions: differentiation in the presence of 10 μM INS1007; neutrophils derived from bone marrow or umbilical cord stem cells (both cell types)
Protocol: as §1, with “At the end of the differentiation/treatment period, cells were harvested for analysis.” left out
In a separate experiment, neutrophils were harvested, stained for 30 min. with either a mouse anti-PR3 monoclonal antibody (Abcam; Cambridge, Mass.) or a mouse monoclonal IgG isotype control (Abcam), followed by a Cy5-conjugated goat anti-mouse IgG secondary antibody (Abcam), fixed in 4% formaldehyde, and mounted to glass slides with PROLONG® Diamond Antifade Mountant with DAPI (Thermo Fisher; Waltham, Mass.). Samples were imaged with an Axio fluorescence microscope (Zeiss; Oberkochen, Germany) using constant settings while imaging samples from different treatment conditions.

Q: What does the source list for `Cn1c(=O)oc2ccc(-c3ccc(C[C@@H](C#N)NC(=O)[C@@H]4CNCCCO4)cc3)cc21` [INS1007, (2S)—N-{(1S)-1-cyano-2-[4-(3-methyl-2-oxo-2,3-dihydro-1,3-benzoxazol-5-yl)phenyl]ethyl}-1,4-oxazepane-2-carboxamide]?
A: percentage of cells with no detectable surface PR3 expression ([1]; neutrophils derived from bone marrow stem cells): ~80%; maximum reduction of surface PR3 expression (MFI, percent of untreated cells) ([1]; neutrophils derived from both bone marrow and umbilical cord blood stem cells, INS1007 0-10 μM, FIG. 1): greater than 60%; percentage of cells with no detectable surface PR3 expression ([1]; neutrophils derived from umbilical cord blood stem cells): more than 50%; decrease of PR3 activity [2]: > 90%; decrease of NE activity [3]: > 90%; decrease of CatG activity [4]: greater than 75%; total PR3 levels ([5]; bone marrow stem cell-derived neutrophils, not completely concentration-dependent): significantly reduced; percentage of cells with positive total PR3 expression ([5]; neutrophils derived from either umbilical cord blood or bone marrow stem cells, FIG. 4): did not reduce; total PR3 levels ([5]; umbilical cord blood stem cell-derived neutrophils): did not reach statistically significant reduction; surface PR3 (fluorescence microscopy) [6]: markedly reduced
